Consider three compounds from US20240246942A1, “KINASE INHIBITORS FOR THE TREATMENT OF NEURODEGENERATIVE DISEASES” (priority 2020, published 2024).

What all share (assay): biochemical
The target in experiment [1] is T1, panel of 374 wild-type kinases (Homo sapiens, UniProt P41240).
T1 construct: purchased Reaction Biology Corporation
Conditions: read-out: % Enzyme Activity (relative to DMSO controls), CSK.

Experiment [2] deals with T2, panel of 374 wild-type kinases (Homo sapiens, UniProt Q04759).
T2 construct: purchased Reaction Biology Corporation
T2 sequence (Q04759 whole entry): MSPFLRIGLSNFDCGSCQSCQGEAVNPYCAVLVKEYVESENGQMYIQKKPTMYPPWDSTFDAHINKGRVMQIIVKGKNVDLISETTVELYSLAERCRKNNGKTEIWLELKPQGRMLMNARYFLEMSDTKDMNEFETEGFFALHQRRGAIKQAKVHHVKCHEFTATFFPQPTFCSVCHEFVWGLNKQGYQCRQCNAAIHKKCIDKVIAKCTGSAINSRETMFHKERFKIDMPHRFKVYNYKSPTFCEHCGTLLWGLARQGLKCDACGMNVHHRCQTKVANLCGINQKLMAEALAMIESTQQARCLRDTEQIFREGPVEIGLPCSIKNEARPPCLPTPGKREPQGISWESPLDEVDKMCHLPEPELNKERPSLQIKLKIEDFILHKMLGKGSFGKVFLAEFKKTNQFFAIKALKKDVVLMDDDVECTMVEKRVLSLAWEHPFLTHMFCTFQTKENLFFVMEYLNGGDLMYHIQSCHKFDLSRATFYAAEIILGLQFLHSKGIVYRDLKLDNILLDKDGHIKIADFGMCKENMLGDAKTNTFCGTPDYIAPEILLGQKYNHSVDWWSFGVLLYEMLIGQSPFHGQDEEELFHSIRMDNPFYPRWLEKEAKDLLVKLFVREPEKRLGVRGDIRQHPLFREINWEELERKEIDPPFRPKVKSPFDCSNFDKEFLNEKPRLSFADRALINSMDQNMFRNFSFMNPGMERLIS
Conditions: read-out: % Enzyme Activity (relative to DMSO controls), kinase PKCtheta.

The target in experiment [3] is T3, panel of 374 wild-type kinases (Homo sapiens, UniProt Q9UK32).
T3 construct: purchased Reaction Biology Corporation
Conditions: read-out: % Enzyme Activity (relative to DMSO controls), kinase RSK4.

Experiment [4] concerns the target T4, panel of 374 wild-type kinases (Homo sapiens, UniProt Q9H1R3).
T4 construct: purchased Reaction Biology Corporation
Conditions: read-out: % Enzyme Activity (relative to DMSO controls), MLCK2/MYLK2.

Experiment [5] concerns the target T5, panel of 374 wild-type kinases (Homo sapiens, UniProt Q9Y2U5).
T5 construct: purchased Reaction Biology Corporation
T5 sequence (Q9Y2U5 1-619): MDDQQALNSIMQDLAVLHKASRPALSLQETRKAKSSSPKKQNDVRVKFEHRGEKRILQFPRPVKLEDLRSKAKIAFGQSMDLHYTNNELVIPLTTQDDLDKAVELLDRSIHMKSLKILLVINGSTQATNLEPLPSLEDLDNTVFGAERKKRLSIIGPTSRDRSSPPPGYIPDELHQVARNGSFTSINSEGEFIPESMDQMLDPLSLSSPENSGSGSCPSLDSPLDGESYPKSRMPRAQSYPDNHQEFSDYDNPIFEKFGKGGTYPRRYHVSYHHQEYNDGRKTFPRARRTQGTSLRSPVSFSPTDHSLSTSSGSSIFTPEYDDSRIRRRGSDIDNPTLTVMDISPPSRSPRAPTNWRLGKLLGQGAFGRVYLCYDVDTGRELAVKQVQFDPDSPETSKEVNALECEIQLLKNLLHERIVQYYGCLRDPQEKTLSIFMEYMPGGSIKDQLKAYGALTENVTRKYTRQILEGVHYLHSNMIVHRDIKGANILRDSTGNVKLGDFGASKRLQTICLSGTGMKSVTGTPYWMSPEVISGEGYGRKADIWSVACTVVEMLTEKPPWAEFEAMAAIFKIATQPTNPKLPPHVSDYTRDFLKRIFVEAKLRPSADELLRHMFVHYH
Conditions: read-out: % Enzyme Activity (relative to DMSO controls), MEKK2.

Experiment [6] has as its target T6, panel of 374 wild-type kinases (Homo sapiens, UniProt O15146).
T6 construct: purchased Reaction Biology Corporation
T6 sequence (O15146 24-869): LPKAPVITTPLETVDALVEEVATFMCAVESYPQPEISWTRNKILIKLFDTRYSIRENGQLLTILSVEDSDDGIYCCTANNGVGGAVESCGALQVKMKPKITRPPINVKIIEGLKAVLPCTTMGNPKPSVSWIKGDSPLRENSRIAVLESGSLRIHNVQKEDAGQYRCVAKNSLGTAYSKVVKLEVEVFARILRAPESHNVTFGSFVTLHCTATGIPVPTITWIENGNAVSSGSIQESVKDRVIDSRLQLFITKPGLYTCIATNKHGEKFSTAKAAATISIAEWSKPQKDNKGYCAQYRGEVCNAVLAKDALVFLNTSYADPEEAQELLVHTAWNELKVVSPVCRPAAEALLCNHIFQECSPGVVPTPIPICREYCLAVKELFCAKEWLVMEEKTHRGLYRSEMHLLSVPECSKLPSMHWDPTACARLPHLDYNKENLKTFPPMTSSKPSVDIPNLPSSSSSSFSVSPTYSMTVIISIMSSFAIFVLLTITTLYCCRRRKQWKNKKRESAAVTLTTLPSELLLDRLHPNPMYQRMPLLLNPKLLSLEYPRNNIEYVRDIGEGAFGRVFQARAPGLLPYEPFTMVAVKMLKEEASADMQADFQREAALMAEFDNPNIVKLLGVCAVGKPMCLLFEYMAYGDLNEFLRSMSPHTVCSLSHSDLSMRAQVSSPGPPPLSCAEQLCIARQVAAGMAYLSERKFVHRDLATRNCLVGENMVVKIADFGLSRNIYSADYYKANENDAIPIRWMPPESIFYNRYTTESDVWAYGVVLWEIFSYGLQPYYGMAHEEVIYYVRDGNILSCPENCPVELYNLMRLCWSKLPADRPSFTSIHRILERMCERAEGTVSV
Conditions: read-out: % Enzyme Activity (relative to DMSO controls), MUSK.

Experiment [7] has as its target T7, panel of 374 wild-type kinases (Homo sapiens, UniProt P36894).
T7 construct: purchased Reaction Biology Corporation
Conditions: read-out: % Enzyme Activity (relative to DMSO controls), ALK3/BMPR1A.

The target of experiment [8] is T8, panel of 374 wild-type kinases (Homo sapiens, UniProt Q6DT37).
T8 construct: purchased Reaction Biology Corporation
T8 sequence (Q6DT37 whole entry): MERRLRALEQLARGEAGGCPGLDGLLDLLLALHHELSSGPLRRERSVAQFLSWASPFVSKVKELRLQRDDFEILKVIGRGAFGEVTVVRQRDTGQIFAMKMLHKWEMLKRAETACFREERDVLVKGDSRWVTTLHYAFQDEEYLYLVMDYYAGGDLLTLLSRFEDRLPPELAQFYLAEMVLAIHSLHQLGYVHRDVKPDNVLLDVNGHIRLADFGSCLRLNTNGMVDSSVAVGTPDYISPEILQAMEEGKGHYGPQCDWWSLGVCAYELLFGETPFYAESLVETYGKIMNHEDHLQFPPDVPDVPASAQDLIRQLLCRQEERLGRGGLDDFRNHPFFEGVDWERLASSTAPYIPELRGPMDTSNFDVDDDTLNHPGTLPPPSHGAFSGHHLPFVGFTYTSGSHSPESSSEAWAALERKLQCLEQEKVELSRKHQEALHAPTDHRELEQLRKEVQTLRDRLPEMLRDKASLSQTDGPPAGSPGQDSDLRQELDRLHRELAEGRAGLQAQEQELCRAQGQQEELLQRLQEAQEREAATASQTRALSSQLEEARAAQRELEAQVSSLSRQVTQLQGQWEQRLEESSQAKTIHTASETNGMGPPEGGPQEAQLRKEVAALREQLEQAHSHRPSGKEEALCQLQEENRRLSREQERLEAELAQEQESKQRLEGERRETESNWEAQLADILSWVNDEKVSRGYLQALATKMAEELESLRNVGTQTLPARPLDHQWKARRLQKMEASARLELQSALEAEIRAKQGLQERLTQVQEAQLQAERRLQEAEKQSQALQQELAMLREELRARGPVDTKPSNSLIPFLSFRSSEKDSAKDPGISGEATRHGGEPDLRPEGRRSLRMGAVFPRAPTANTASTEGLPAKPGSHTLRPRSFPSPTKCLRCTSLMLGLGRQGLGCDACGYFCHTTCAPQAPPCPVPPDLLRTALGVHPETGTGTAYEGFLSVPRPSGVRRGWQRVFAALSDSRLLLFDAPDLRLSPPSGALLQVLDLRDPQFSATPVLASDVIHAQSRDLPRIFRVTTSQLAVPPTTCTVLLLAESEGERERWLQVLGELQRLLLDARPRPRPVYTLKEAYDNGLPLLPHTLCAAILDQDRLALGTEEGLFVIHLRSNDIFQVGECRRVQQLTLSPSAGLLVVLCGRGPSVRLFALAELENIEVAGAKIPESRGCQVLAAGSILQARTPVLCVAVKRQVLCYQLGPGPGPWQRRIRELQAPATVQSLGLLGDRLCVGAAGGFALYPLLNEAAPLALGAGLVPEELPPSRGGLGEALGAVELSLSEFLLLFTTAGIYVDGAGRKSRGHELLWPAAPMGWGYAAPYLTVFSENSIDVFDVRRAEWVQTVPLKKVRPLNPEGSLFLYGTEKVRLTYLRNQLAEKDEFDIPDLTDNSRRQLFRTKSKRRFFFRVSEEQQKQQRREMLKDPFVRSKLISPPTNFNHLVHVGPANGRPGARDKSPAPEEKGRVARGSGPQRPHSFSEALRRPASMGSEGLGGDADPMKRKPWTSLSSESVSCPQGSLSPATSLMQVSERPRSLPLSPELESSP
Conditions: read-out: % Enzyme Activity (relative to DMSO controls), DMPK2.

Experiment [9] addresses T9, panel of 374 wild-type kinases (Homo sapiens, UniProt O75676).
T9 construct: purchased Reaction Biology Corporation
Conditions: read-out: % Enzyme Activity (relative to DMSO controls), MSK2/RPS6KA4.

Experiment [10] has as its target T10, panel of 374 wild-type kinases (Homo sapiens, UniProt Q02763).
T10 construct: purchased Reaction Biology Corporation
Conditions: read-out: % Enzyme Activity (relative to DMSO controls), kinase TIE2/TEK.

T9 sequence (O75676 whole entry): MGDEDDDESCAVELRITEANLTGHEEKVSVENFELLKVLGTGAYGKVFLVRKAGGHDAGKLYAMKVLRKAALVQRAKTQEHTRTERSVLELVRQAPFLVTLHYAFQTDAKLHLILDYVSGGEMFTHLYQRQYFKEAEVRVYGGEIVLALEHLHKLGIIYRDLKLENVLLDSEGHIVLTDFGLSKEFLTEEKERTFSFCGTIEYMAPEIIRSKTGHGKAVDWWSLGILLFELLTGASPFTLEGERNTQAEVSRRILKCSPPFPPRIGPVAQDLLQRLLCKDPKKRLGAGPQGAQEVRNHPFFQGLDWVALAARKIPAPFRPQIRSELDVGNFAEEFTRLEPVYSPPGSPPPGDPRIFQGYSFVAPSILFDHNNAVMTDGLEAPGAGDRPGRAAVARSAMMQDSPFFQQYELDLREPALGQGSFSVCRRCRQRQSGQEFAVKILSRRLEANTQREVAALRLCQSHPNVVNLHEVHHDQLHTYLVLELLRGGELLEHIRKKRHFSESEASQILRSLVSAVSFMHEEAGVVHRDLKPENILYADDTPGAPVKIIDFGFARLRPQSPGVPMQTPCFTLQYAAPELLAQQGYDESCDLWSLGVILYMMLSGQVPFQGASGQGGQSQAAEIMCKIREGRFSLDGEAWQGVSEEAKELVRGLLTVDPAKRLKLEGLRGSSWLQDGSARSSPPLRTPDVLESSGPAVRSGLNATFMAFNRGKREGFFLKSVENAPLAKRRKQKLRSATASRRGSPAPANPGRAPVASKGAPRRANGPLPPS
T10 sequence (Q02763 23-1124): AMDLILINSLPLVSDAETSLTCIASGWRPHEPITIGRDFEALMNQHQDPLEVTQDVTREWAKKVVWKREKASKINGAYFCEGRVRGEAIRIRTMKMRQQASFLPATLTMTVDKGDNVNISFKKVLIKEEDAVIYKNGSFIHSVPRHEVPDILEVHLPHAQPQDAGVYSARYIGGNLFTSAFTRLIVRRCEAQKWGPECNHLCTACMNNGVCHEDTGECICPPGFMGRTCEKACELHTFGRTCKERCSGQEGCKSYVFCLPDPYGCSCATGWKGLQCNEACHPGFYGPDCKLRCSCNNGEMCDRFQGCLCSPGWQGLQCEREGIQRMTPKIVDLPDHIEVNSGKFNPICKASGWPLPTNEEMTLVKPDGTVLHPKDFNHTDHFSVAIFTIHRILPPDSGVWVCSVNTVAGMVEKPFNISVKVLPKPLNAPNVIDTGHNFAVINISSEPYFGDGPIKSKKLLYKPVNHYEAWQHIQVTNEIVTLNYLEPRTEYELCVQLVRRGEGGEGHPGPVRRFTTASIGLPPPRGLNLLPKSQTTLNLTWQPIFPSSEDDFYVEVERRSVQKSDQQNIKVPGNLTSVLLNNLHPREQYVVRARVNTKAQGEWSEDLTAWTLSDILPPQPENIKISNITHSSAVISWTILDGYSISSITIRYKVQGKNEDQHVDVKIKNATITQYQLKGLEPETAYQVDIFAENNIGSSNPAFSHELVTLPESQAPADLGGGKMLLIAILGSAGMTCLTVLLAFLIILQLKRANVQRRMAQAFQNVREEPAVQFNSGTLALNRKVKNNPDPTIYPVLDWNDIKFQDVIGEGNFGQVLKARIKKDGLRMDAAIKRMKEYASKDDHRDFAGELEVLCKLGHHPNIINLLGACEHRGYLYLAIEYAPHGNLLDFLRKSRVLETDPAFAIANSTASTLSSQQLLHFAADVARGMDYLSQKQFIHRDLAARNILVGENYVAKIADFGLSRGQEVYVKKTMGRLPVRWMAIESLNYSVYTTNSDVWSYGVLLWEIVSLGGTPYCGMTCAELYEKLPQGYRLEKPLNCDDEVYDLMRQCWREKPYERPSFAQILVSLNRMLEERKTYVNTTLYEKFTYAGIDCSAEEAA
T1 sequence (P41240 whole entry): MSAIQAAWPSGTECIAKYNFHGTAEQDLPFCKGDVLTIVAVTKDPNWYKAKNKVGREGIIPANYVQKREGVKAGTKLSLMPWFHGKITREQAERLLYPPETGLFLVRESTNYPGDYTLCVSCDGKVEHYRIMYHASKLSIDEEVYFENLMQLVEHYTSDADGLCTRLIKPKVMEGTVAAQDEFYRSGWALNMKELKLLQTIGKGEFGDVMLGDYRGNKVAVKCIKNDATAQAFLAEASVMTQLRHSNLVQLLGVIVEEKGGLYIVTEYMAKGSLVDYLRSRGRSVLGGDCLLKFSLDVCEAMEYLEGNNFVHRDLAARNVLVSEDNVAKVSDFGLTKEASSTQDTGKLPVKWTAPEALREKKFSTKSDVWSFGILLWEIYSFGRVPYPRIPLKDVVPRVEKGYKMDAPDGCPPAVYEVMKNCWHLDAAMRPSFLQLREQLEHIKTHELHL
T7 sequence (P36894 24-532): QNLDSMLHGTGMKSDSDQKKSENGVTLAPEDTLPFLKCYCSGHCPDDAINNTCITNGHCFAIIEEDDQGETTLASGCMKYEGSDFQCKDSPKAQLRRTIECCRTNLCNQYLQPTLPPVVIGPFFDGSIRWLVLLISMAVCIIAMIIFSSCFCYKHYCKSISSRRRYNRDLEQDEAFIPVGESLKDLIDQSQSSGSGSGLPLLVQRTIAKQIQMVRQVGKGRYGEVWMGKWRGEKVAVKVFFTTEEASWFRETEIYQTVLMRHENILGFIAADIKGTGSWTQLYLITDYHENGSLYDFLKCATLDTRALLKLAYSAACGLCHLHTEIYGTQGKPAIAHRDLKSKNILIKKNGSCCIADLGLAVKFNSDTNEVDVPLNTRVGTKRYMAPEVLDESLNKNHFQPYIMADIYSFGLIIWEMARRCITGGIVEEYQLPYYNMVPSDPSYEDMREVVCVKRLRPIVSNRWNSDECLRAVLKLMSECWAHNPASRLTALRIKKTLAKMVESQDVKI

For `O=C(Nc1cnn(-c2csc(C(=O)NC3COC3)c2)c1)Nc1ccccc1Cl` [Compound 17, 4-(4-(3-(2-chlorophenyl)ureido)-1H-pyrazol-1-yl)-N-(oxetan-3-yl)thiophene-2-carboxamide], the remaining activity at 5 µM came out at 99.2% in experiment [1]; 114% in [2]; 107% in experiment [3]; 89.9% in [4]; 110% in [5]; 94.5% in experiment [6]. Also, the remaining activity at 5 µM came out at 105% in experiment [7], 87% in experiment [8], 90.7% in experiment [9] and 100% in experiment [10].

For `O=C(Nc1cnn(-c2csc(C(=O)NC3COC3)c2)c1)Nc1c(F)cccc1Cl` [Compound 25, 4-(4-(3-(2-chloro-6-fluorophenyl)ureido)-1H-pyrazol-1-yl)-N-(oxetan-3-yl)thiophene-2-carboxamide], the remaining activity at 5 µM in [1] was 97.5%; in experiment [2], 94.7%; in experiment [3], 92.2%; in experiment [4] it was 83.5%; in experiment [5] it was 80.1%; in [6], 86.8%. Also, the remaining activity at 5 µM worked out at 103% in [7], 119% in experiment [8], 99.8% in experiment [9] and 105% in experiment [10].

`Cc1sc(C(=O)NC2COC2)cc1-n1cc(NC(=O)Nc2c(F)cccc2Cl)cn1` [Compound 27, 4-(4-(3-(2-chloro-6-fluorophenyl)ureido)-1H-pyrazol-1-yl)-5-methyl-N-(oxetan-3-yl)thiophene-2-carboxamide]: the remaining activity at 10 µM in [1] (10 uM) came out at 98%; in [2] (10 uM) it was 96.9%; in experiment [3] (10 uM) it was 116%; in experiment [4] (10 uM) it was 78.7%; in experiment [5] (10 uM), 88.1%; in experiment [6] (10 uM), 103%. Besides, the remaining activity at 10 µM in [7] (10 uM) came out at 92.5%; in experiment [8] (10 uM), 118%; in experiment [9] (10 uM) it was 105%; in [10] (10 uM), 86.6%.
